For data set [1] the following is noted: in vivo and in vitro, topical administration; cited from earlier work.
A short description of data set [2]: transport of water-soluble material by association with nonionic vesicles.

In the case of `C[C@]12CC[C@@H]3c4ccc(O)cc4CC[C@H]3[C@@H]1CC[C@@H]2O` [estradiol], in data set [1], the “effect of phospholipid liposomes on penetration into the skin” value (from here on “effect of phospholipid liposomes”) is “do not improve penetration”.
`C[C@]12CCC(=O)C=C1CC[C@@H]1[C@@H]2[C@@H](O)C[C@@]2(C)[C@H]1CC[C@]2(O)C(=O)CO` [hydrocortisone]: the “effect of phospholipid liposomes” value in data set [1] is given as “do not improve penetration”.
Take `CC(=O)[C@H]1CC[C@H]2[C@@H]3CCC4=CC(=O)CC[C@]4(C)[C@H]3CC[C@]12C` [progesterone]: the “effect of phospholipid liposomes” value in data set [1] is listed as “do not improve penetration”.
“TGF-α: water-soluble material tested for transport by association with nonionic vesicles”: the “transport by association with nonionic vesicles” value in data set [2] is reported as “transported to a greater extent”.
Regarding carboxyfluoroscein, the “transport by association with nonionic vesicles” value in data set [2] is “transported to a greater extent”.

(Values after patent US5834014A, “Stimulation of hair follicles” (priority 1995, dated 1998).)
